In ChEMBL document CHEMBL1155232, “Aminoimidazoles as potent and selective human beta-secretase (BACE1) inhibitors” (J Med Chem, 2009):
Activity calls are given as the source filed them. The calls are words filed in the database; no cut-off is given here.

How the values were obtained:
Cathepsin D [1] = target: T1, Cathepsin D (Homo sapiens, UniProt P07339); experiment: Inhibition of human cathepsin D by FRET
Beta-secretase 2 = target: T2, Beta-secretase 2 (Homo sapiens, UniProt Q9Y5Z0)
T2 sequence (Q9Y5Z0 whole entry): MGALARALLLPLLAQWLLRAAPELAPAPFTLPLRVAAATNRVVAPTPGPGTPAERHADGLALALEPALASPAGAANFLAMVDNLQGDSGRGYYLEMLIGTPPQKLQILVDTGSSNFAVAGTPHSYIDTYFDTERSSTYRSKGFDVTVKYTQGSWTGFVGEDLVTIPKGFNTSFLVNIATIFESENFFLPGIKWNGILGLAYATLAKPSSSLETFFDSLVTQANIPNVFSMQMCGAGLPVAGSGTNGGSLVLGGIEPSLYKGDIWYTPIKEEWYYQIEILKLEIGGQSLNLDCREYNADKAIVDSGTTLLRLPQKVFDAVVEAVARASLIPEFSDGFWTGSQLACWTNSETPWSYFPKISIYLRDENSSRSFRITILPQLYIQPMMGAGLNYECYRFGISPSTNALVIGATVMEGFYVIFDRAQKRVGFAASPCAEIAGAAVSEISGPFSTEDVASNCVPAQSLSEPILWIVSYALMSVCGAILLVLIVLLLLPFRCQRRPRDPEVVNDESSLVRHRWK

Beta-secretase 1 [2] = target: T3, Beta-secretase 1 (Homo sapiens, UniProt P56817); experiment: Inhibition of BACE1 expressed in CHO cells co-expressing human wild type APP protein by ELISA; assay type: cell-based
Beta-secretase 1 [3] = target: T3, Beta-secretase 1; experiment: Inhibition of human BACE1 by FRET
[4] = target: T4, Beta-secretase 2 (Homo sapiens) (UniProt Q9Y5Z0); experiment: Inhibition of human BACE2 at 100 uM by FRET
T4 sequence (whole entry): T2 sequence (Q9Y5Z0 whole entry)

Renin (Homo sapiens) = target: T5, Renin (Homo sapiens) (UniProt P00797); experiment: Inhibition of human recombinant renin at 50 uM by FRET
T5 sequence (whole entry): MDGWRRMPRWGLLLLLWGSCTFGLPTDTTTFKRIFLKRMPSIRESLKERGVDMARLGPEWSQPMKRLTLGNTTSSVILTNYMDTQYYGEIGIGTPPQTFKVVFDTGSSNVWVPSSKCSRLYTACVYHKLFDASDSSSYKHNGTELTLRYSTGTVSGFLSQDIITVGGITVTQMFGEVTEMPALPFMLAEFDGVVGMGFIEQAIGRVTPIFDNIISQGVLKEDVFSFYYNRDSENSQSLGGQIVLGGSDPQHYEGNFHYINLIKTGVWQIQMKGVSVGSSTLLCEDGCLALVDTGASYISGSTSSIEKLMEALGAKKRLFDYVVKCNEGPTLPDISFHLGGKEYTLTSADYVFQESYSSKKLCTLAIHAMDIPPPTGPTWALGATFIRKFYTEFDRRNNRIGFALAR

[5] = Inhibition of pepsin at 100 uM by FRET
Mus musculus [6] = experiment: Reduction in Abeta-40 level in Tg2576 mouse brain at 30 mg/kg, po administered as single dose after 6 hrs; assay type: functional, organism-based; set-up: dose 30 mg/kg
Mus musculus [7] = experiment: Reduction in Abeta-40 level in Tg2576 mouse plasma at 30 mg/kg, po administered as single dose after 6 hrs; assay type: functional; set-up: scale not given: the % may be the effect or the level left
Renin = target: T6, Renin (Homo sapiens, UniProt P00797); experiment: Inhibition of human recombinant renin by FRET
T6 sequence (P00797 whole entry): T5 sequence (whole entry)

Cathepsin D [8] = target: T1, Cathepsin D; experiment: Inhibition of human cathepsin D at 100 uM by FRET
Cathepsin D [9] = target: T1, Cathepsin D; experiment: Inhibition of human cathepsin D at 200 uM by FRET
[10] = target: T4, Beta-secretase 2 (Homo sapiens); experiment: Inhibition of human BACE2 at […] by FRET

T1 sequence (P07339 65-162 limits assumed): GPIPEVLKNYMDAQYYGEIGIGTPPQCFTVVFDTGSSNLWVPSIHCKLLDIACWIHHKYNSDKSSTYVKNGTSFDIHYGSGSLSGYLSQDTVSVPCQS
T1 sequence (P07339 169-412 limits assumed): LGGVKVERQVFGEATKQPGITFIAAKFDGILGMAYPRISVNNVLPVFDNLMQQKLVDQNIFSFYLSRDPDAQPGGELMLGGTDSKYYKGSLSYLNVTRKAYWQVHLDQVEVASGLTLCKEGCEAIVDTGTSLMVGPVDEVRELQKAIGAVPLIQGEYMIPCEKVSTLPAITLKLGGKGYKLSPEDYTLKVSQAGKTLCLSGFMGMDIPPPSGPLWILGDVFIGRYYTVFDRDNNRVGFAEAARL
T3 sequence (P56817 whole entry): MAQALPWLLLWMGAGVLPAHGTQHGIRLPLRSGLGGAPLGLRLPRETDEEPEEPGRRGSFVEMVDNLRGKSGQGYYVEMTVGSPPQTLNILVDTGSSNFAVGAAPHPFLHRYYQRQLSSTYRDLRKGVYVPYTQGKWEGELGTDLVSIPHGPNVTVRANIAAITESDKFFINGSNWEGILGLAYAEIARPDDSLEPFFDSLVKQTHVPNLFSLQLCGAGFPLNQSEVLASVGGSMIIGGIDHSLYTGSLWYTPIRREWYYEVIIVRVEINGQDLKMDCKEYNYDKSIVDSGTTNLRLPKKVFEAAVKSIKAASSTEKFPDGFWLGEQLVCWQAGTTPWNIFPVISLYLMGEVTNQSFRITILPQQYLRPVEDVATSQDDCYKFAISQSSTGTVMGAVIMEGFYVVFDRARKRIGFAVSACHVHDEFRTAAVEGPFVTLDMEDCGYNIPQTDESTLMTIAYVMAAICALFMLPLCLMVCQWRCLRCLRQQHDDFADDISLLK

NC1=NC(c2ccccc2)(c2cccc(Cc3ccccc3)c2)C2=NCCCN12 (stereo unspecified)
IC50 (Cathepsin D [1]): 52.5 µM | IC50 (Beta-secretase 2): 10.9 µM | EC50 (Beta-secretase 1 [2]): 5.1 µM

CC(C)(C)c1cccc(C2(c3ccccc3)N=C(N)N3CCCN=C32)c1 (stereo unspecified)
IC50 (Beta-secretase 1 [3]): 30.2 µM | inhibition [4]: 21% | IC50 (Cathepsin D [1]): 150 µM | EC50 (Beta-secretase 1 [2]): 3 µM

NC1=NC(c2ccc(OC(F)(F)F)cc2)(c2cccc(-c3cccnc3F)c2)C2=NCCCN12 (racemic)
IC50 (Cathepsin D [1]): 18.1 µM

NC1=NC(c2ccccc2)(c2cccc(Cc3ccc(F)cc3)c2)C2=NCCCN12 (stereo unspecified)
inhibition (Renin (Homo sapiens)): 15% | IC50 (Cathepsin D [1]): 9.2 µM | IC50 (Beta-secretase 2): 7 µM | inhibition [5]: 6% | EC50 (Beta-secretase 1 [2]): 4.6 µM

NC1=NC(c2ccc(OC(F)(F)F)cc2)(c2cccc(-c3cccnc3F)c2)C2=NCCN12 (stereo unspecified)
IC50 (Cathepsin D [1]): 10.7 µM

NC1=N[C@](c2ccc(OC(F)(F)F)cc2)(c2cccc(-c3cccnc3F)c2)C2=NCCCN12
Activity (Mus musculus [6]): inactive | IC50 (Cathepsin D [1]): 6.9 µM | IC50 (Beta-secretase 2): 3.6 µM | inhibition [5]: 13% | Activity (Mus musculus [7]): 71% | IC50 (Renin): 20.8 µM

NC1=NC(c2ccccc2)(c2cccc(C(F)(F)F)c2)C2=NCCCN12 (stereo unspecified)
inhibition (Cathepsin D [8]): 28% | IC50 (Beta-secretase 1 [3]): 21.9 µM | IC50 (Beta-secretase 2): 30.1 µM | EC50 (Beta-secretase 1 [2]): 5.1 µM

COc1ccc(C2(c3cccc(-c4cncnc4)c3)N=C(N)N3CCCN=C32)cc1 (stereo unspecified)
IC50 (Cathepsin D [1]): 69.5 µM | IC50 (Beta-secretase 2): 16.2 µM

NC1=N[C@](c2ccc(OC(F)(F)F)cc2)(c2cccc(-c3cncnc3)c2)C2=NCCCN12
inhibition (Renin (Homo sapiens)): 36% | IC50 (Cathepsin D [1]): 36.2 µM | IC50 (Beta-secretase 2): 10.7 µM | inhibition [5]: 12%

CC1(C)CN2C(N)=NC(c3ccc(OC(F)(F)F)cc3)(c3cccc(-c4cccnc4F)c3)C2=N1 (stereo unspecified)
IC50 (Beta-secretase 1 [3]): 0.19 µM | IC50 (Cathepsin D [1]): 33 µM | IC50 (Beta-secretase 2): 17.3 µM | EC50 (Beta-secretase 1 [2]): 1.5 µM

NC1=NC(c2cccc(-c3cccnc3F)c2)(c2ccc3c(c2)OC(F)(F)O3)C2=NCCCN12 (stereo unspecified)
IC50 (Cathepsin D [1]): 95.3 µM

NC1=N[C@@](c2ccc(OC(F)(F)F)cc2)(c2cccc(-c3cncnc3)c2)C2=NCCCN12
inhibition (Cathepsin D [8]): 29%

NC1=NC(c2ccccc2)(c2ccccc2)C2=NCCCN12
inhibition (Cathepsin D [9]): 16%

NC1=NC(c2cccc(-c3cccnc3F)c2)(c2ccc3c(c2)OCCO3)C2=NCCCN12 (stereo unspecified)
IC50 (Cathepsin D [1]): 9.6 µM

COc1ccc(Cc2cccc(C3(c4ccccc4)N=C(N)N4CCCN=C43)c2)cc1 (stereo unspecified)
IC50 (Cathepsin D [1]): 24.9 µM | IC50 (Beta-secretase 2): 22.4 µM | EC50 (Beta-secretase 1 [2]): 5.1 µM

NC1=NC(c2ccc(OC(F)(F)F)cc2)(c2cccc(Br)c2)C2=NCCCN12 (stereo unspecified)
IC50 (Beta-secretase 1 [3]): 2.6 µM | IC50 (Cathepsin D [1]): 47.4 µM | inhibition [10]: 39% | EC50 (Beta-secretase 1 [2]): 1.6 µM

COc1cccc(C2(c3ccccc3)N=C(N)N3CCCN=C32)c1 (stereo unspecified)
inhibition (Cathepsin D [8]): 22% | IC50 (Beta-secretase 1 [3]): 20.3 µM | IC50 (Beta-secretase 2): 24.4 µM | EC50 (Beta-secretase 1 [2]): 20.9 µM

NC1=NC(c2cccc(-c3cccnc3F)c2)(c2ccc3c(c2)OCO3)C2=NCCCN12 (stereo unspecified)
inhibition (Renin (Homo sapiens)): 24% | IC50 (Cathepsin D [1]): 15.4 µM | inhibition [5]: 18%

CCCc1cccc(C2(c3ccc(OC(F)(F)F)cc3)N=C(N)N3CCCN=C32)c1 (stereo unspecified)
IC50 (Cathepsin D [1]): 93.7 µM | EC50 (Beta-secretase 1 [2]): 2.1 µM

NC1=NC(c2ccc(OC(F)(F)F)cc2)(c2cccc(-c3cccnc3F)c2)C2=NOCCN12 (stereo unspecified)
IC50 (Cathepsin D [1]): 2.4 µM | inhibition [5]: 12% | IC50 (Renin): 2.04 µM | EC50 (Beta-secretase 1 [2]): 0.2 µM

NC1=NC(c2ccc(OC(F)(F)F)cc2)(c2cccc(-c3cccnc3F)c2)/C2=N/CCCCCN12 (stereo unspecified)
IC50 (Cathepsin D [1]): 11.3 µM | IC50 (Beta-secretase 2): 10.8 µM

NC1=NC(c2ccc(OC(F)(F)F)cc2)(c2cccc(-c3cccnc3F)c2)C2=NCCCCN12 (stereo unspecified)
IC50 (Beta-secretase 1 [3]): 0.08 µM | IC50 (Cathepsin D [1]): 10.8 µM | EC50 (Beta-secretase 1 [2]): 0.3 µM

COc1ccc(C2(c3cccc(-c4cccnc4F)c3)N=C(N)N3CCCN=C32)cc1 (stereo unspecified)
IC50 (Beta-secretase 1 [3]): 0.07 µM | IC50 (Cathepsin D [1]): 16.5 µM | EC50 (Beta-secretase 1 [2]): 1.63 µM

NC1=NC(c2ccc(OC(F)(F)F)cc2)(c2cccc(CCC3CC3)c2)C2=NCCCN12 (stereo unspecified)
IC50 (Cathepsin D [1]): 16.4 µM | IC50 (Beta-secretase 2): 3.78 µM | EC50 (Beta-secretase 1 [2]): 0.95 µM

CCOc1ccc(C2(c3cccc(-c4cccnc4F)c3)N=C(N)N3CCCN=C32)cc1OCC (stereo unspecified)
IC50 (Beta-secretase 1 [3]): 0.08 µM | inhibition (Renin (Homo sapiens)): 14% | IC50 (Cathepsin D [1]): 63.4 µM | inhibition [5]: 11%

NC1=N[C@@](c2ccc(OC(F)(F)F)cc2)(c2cccc(-c3cccnc3F)c2)C2=NCCCN12
IC50 (Cathepsin D [1]): 56.9 µM

NC1=NC(c2ccc(OC(F)(F)F)cc2)(c2cccc(-c3cncnc3)c2)C2=NCCCN12 (stereo unspecified)
IC50 (Cathepsin D [1]): 78.7 µM | IC50 (Beta-secretase 2): 16.7 µM
